A value given as a limit tells only on which side of the number the result lay.

For one experiment, the target named is Mtb ThyX (Mycobacterium tuberculosis, UniProt P9WG57). Put plainly: M. tuberculosis ThyX NADPH oxidase assay. The note with it: 50 μM, screening hits (Figure 1); read-out: % inhibition (ThyX). The experiment is classed as biochemical.
Sequence of Mtb ThyX (P9WG57 whole entry): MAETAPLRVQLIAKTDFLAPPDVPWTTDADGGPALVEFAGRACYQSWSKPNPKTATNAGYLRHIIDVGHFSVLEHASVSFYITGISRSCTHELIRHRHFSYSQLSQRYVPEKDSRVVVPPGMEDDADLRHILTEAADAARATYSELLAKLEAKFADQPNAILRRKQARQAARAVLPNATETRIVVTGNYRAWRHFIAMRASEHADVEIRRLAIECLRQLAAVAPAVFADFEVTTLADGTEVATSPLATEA
With `Cc1ccn2c(c1)nc1c(-c3ccc(OC(F)(F)F)cc3)nc(C(F)(F)F)nc12` [Compound 5], the inhibition at 50 µM worked out at 13.2%. The same measure, in the same setting: the value for `OB(O)c1ccc(Sc2nc(C(F)(F)F)nc3c2nc2ccccn23)cc1` [Compound 6] was 17.1%.

Staying with this experiment, now noted: 200 μM compound, NADPH oxidase assay, 50 µM FAD.
As for “1-[[p-(Dimethoxyphosphorylmethyl)phenyl]methyl]-3-(4-fluorophenyl)purino [9,8-a]pyridine-2,4-dione [Compound 13f]”, the “Inhibition % (Mtb ThyX)” value was found to be 5.6%. The same measure, in the same setting: then “3-(p-Fluorophenyl)-8-hept-1-ynyl-1H-purino [9,8-a]pyridine-2,4-dione [Compound 20d]”, with 0%. In the case of “3-(p-Fluorophenyl)-8-hex-1-ynyl-1H-purino [9,8-a]pyridine-2,4-dione [Compound 20c]”, the “Inhibition % (Mtb ThyX)” value was found to be 18.6%.

Staying with this experiment, now noted: 200 μM compound, NADPH oxidase assay, 50 µM FAD; read-out: Inhibition % (Mtb ThyX).
On to `O=c1[nH]c2c(nc3ccccn32)c(=O)n1-c1ccc(Br)cc1` [Compound 9c, 3-(4-Bromophenyl)pyrido [1,2-e]purine-2,4(1H,3H)-dione], for which the inhibition at 200 µM came out at 52.2%. For `O=c1[nH]c2c(nc3ccccn32)c(=O)n1-c1ccc(C(F)(F)F)cc1` [Compound 9e, 3-(4-(Trifluoromethyl)phenyl)pyrido [1,2-e]purine-2,4(1H,3H)-dione], the inhibition at 200 µM came to 31.7%. In the case of `COc1ccc(-n2c(=O)[nH]c3c(nc4ccccn43)c2=O)cc1` [Compound 9f, 3-(p-Methoxyphenyl)pyrido [1,2-e]purine-2,4(1H,3H)-dione], the inhibition at 200 µM is 8.1%. Still for that read-out and setting: the value for `O=c1[nH]c2c(nc3ccccn32)c(=O)n1-c1cccc(F)c1` [Compound 9g, 3-(3-Fluorophenyl)pyrido [1,2-e]purine-2,4(1H,3H)-dione] was 12.8%; that for `O=c1[nH]c2c(nc3ccccn32)c(=O)n1-c1ccc(F)c(F)c1` [Compound 9h, 3-(3,4-Difluorophenyl)pyrido [1,2-e]purine-2,4(1H,3H)-dione] was 22.7%; that for `O=c1[nH]c2c(nc3ccccn32)c(=O)n1-c1ccc(F)cc1F` [Compound 9i, 3-(2,4-Difluorophenyl)pyrido [1,2-e]purine-2,4(1H,3H)-dione] was 6.6%. Regarding `Cc1ccc(-n2c(=O)[nH]c3c(nc4ccccn43)c2=O)cc1C` [Compound 9j, 3-(3,4-Dimethylphenyl)pyrido [1,2-e]purine-2,4(1H,3H)-dione], the inhibition at 200 µM turned out to be 19.9%.

Turning to `O=c1[nH]c2c(nc3ccccn32)c(=O)n1Cc1ccccc1` [Compound 10a, 3-(Benzyl)pyrido [1,2-e]purine-2,4(1H,3H)-dione], the inhibition at 200 µM stood at 22.3%. Still for that read-out and setting: then `O=c1[nH]c2c(nc3ccccn32)c(=O)n1Cc1ccc(F)cc1` [Compound 10b, 3-(p-Fluorobenzyl)pyrido [1,2-e]purine-2,4(1H,3H)-dione], with 21.2%. `O=c1[nH]c2c(nc3ccccn32)c(=O)n1Cc1ccc(C(F)(F)F)cc1` [Compound 10c, 3-(p-(Trifluoromethyl)benzyl)pyrido [1,2-e]purine-2,4(1H,3H)-dione]: the inhibition at 200 µM was 20.7%.

Regarding `Cc1ccc(Cn2c(=O)[nH]c3c(nc4ccccn43)c2=O)cc1` [Compound 10d, 3-(p-Methylbenzyl)pyrido [1,2-e]purine-2,4(1H,3H)-dione], the inhibition at 200 µM was determined as 20.2%. The same measure, in the same setting: then `O=c1c2nc3ccccn3c2[nH]c(=S)n1-c1ccc(F)cc1` [Compound 11, 3-(4-Fluorophenyl)-2-thioxo-2,3-dihydropyrido [1,2-e]purin-4(1H)-one], with 19.8%. As for `O=c1c2nc3ccccn3c2[nH]c(=S)n1Cc1ccccc1` [Compound 12, 3-Benzyl-2-thioxo-2,3-dihydropyrido [1,2-e]purin-4(1H)-one], the inhibition at 200 µM stood at 0%. `O=c1c2nc3ccccn3c2n(Cc2ccccc2)c(=O)n1-c1ccc(F)cc1` [Compound 13a, 1-Benzyl-3-(4-fluorophenyl)purino [9,8-a]pyridine-2,4-dione]: the inhibition at 200 µM was determined as 23.2%. Take `Cc1ccc(Cn2c(=O)n(-c3ccc(F)cc3)c(=O)c3nc4ccccn4c32)cc1` [Compound 13b, 3-(p-Fluorophenyl)-1-[(p-methylphenyl)methyl]purino[9,8-a]pyridine-2,4-dione]: the inhibition at 200 µM came out at 10.9%.

With `N#Cc1ccc(Cn2c(=O)n(-c3ccc(F)cc3)c(=O)c3nc4ccccn4c32)cc1` [Compound 13c, 4-[[3-(p-Fluorophenyl)-2,4-dioxo-purino[9,8-a]pyridin-1-yl]methyl]benzonitrile], the inhibition at 200 µM amounted to 26.5%. Still for that read-out and setting: then `O=c1c2nc3ccccn3c2n(Cc2ccc([N+](=O)[O-])cc2)c(=O)n1-c1ccc(F)cc1` [Compound 13d, 3-(p-Fluorophenyl)-1-[(p-nitrophenyl)methyl]purino [9,8-a]pyridine-2,4-dione], with 0%; and `COC(=O)c1ccc(Cn2c(=O)n(-c3ccc(F)cc3)c(=O)c3nc4ccccn4c32)cc1` [Compound 13e, Methyl 4-[[3-(p-fluorophenyl)-2,4-dioxo-purino [9,8-a]pyridin-1-l]methyl]benzoate], with 44.8%; and `Cc1ccn2c(c1)nc1c(=O)n(-c3ccc(F)cc3)c(=O)[nH]c12` [Compound 18a, 3-(p-Fluorophenyl)-7-methylpyrido [1,2-e]purine-2,4(1H,3H)-dione], with 45.8%. For `Cc1ccc2nc3c(=O)n(-c4ccc(F)cc4)c(=O)[nH]c3n2c1` [Compound 18b, 3-(p-Fluorophenyl)-8-methylpyrido [1,2-e]purine-2,4(1H,3H)-dione], the inhibition at 200 µM is 13.2%. On the same count and under the same terms, then `O=c1[nH]c2c(nc3cc(Br)ccn32)c(=O)n1-c1ccc(F)cc1` [Compound 19a, 7-Bromo-3-(p-fluorophenyl)pyrido [1,2-e]purine-2,4(1H,3H)-dione], with 8.8%; and `O=c1[nH]c2c(nc3ccc(Br)cn32)c(=O)n1-c1ccc(F)cc1` [Compound 19b, 8-Bromo-3-(p-fluorophenyl)pyrido [1,2-e]purine-2,4(1H,3H)-dione], with 5.4%. With `O=c1[nH]c2c(nc3cc(C#CCCc4ccccc4)ccn32)c(=O)n1-c1ccc(F)cc1` [Compound 20a, 3-(p-Fluorophenyl)-7-(4-phenylbut-1-ynyl)-1H-purino [9,8-a]pyridine-2,4-dione], the inhibition at 200 µM was 32%. Still for that read-out and setting: the value for `CCCc1ccc(C#Cc2ccn3c(c2)nc2c(=O)n(-c4ccc(F)cc4)c(=O)[nH]c23)cc1` [Compound 20b, 3-(p-Fluorophenyl)-7-[2-(4-propylphenyl)ethynyl]-1H-purino [9,8-a]pyridine-2,4-dione] was 0%; that for `CCCCCCC#Cc1ccn2c(c1)nc1c(=O)n(-c3ccc(F)cc3)c(=O)[nH]c12` [Compound 20e, 3-(p-Fluorophenyl)-7-oct-1-ynyl-1H-purino [9,8-a]pyridine-2,4-dione] was 45.1%. Still for that read-out and setting: the value for `CCCCCCCC(=O)NCC#Cc1ccn2c(c1)nc1c(=O)n(-c3ccc(F)cc3)c(=O)[nH]c12` [Compound 20f, N-[3-[3-(p-fluorophenyl)-2,4-dioxo-1H-purino [9,8-a]pyridin-7-yl]prop-2-ynyl]octanamide] was 18.8%.

For the molecule `CCCCCCNC(=O)NCC#Cc1ccn2c(c1)nc1c(=O)n(-c3ccc(F)cc3)c(=O)[nH]c12` [Compound 20g, 1-[3-[3-(p-Fluorophenyl)-2,4-dioxo-1H-purino [9,8-a]pyridin-7-yl]prop-2-ynyl]-3-hexyl-urea], the inhibition at 200 µM stood at 0%. Consider `O=c1[nH]c2c(nc3ccc(C#CCCc4ccccc4)cn32)c(=O)n1-c1ccc(F)cc1` [Compound 21a, 3-(p-Fluorophenyl)-8-(4-phenylbut-1-ynyl)-1H-purino [9,8-a]pyridine-2,4-dione], for which the inhibition at 200 µM came to 69.1%. The same measure, in the same setting: then `CCCCC#Cc1ccc2nc3c(=O)n(-c4ccc(F)cc4)c(=O)[nH]c3n2c1` [Compound 21c, 3-(p-Fluorophenyl)-8-hex-1-ynyl-1H-purino [9,8-a]pyridine-2,4-dione], with 0%.

As to `CCCCCC#Cc1ccc2nc3c(=O)n(-c4ccc(F)cc4)c(=O)[nH]c3n2c1` [Compound 21d, 3-(p-Fluorophenyl)-8-hept-1-ynyl-1H-purino [9,8-a]pyridine-2,4-dione], the inhibition at 200 µM amounted to 32.5%. Same read-out and setting: the value for `CCCCCCC#Cc1ccc2nc3c(=O)n(-c4ccc(F)cc4)c(=O)[nH]c3n2c1` [Compound 21e, 3-(p-Fluorophenyl)-8-oct-1-ynyl-1H-purino [9,8-a]pyridine-2,4-dione] was 31.7%; that for `CCCCCCCC(=O)NCC#Cc1ccc2nc3c(=O)n(-c4ccc(F)cc4)c(=O)[nH]c3n2c1` [Compound 21f, N-[3-[3-(p-fluorophenyl)-2,4-dioxo-1H-purino [9,8-a]pyridin-8-yl]prop-2-ynyl]octanamide] was 16.9%; that for `CCCCCCNC(=O)NCC#Cc1ccc2nc3c(=O)n(-c4ccc(F)cc4)c(=O)[nH]c3n2c1` [Compound 21g, 1-[3-[3-(p-Fluorophenyl)-2,4-dioxo-1H-purino [9,8-a]pyridin-8-yl]prop-2-ynyl]-3-hexyl-urea] was 28.2%. With `O=c1[nH]c2c(nc3cc(-c4ccccc4)ccn32)c(=O)n1-c1ccc(F)cc1` [Compound 22a, 3-(p-Fluorophenyl)-7-phenyl-1H-purino [9,8-a]pyridine-2,4-dione], the inhibition at 200 µM was 20.7%. For the molecule `Cc1ccc(-c2ccn3c(c2)nc2c(=O)n(-c4ccc(F)cc4)c(=O)[nH]c23)cc1` [Compound 22b, 3-(p-Fluorophenyl)-7-(p-tolyl)-1H-purino [9,8-a]pyridine-2,4-dione], the inhibition at 200 µM was 45.7%. Same read-out and setting: then `COc1ccc(-c2ccn3c(c2)nc2c(=O)n(-c4ccc(F)cc4)c(=O)[nH]c23)cc1` [Compound 22c, 3-(p-Fluorophenyl)-7-(p-methoxyphenyl)-1H-purino [9,8-a]pyridine-2,4-dione], with no more than 28%.

Still in this experiment, the particulars now being: 200 µM, screening of in-house compound libraries; read-out: ThyX inhibitory effect.
As to `Cc1ccn2c(c1)nc1c(-c3ccc(OC(F)(F)F)cc3)nc(C(F)(F)F)nc12` [Compound 5], the inhibition at 200 µM came out at 23.1%. For `OB(O)c1ccc(Sc2nc(C(F)(F)F)nc3c2nc2ccccn23)cc1` [Compound 6], the inhibition at 200 µM came to 33.2%.

Values taken from paper PMC9571937, “Synthesis and Structure–Activity Relationship Studies of Pyrido [1,2-e]Purine-2,4(1H,3H)-Dione Derivatives Targeting Flavin-Dependent Thymidylate Synthase in Mycobacterium tuberculosis” (Molecules, 2022).
